We go through 15 compounds from patent publication US11708360B2, “N-substituted-dioxocyclobutenylamino-3-hydroxy-picolinamides useful as CCR6 inhibitors” (Pfizer Inc., priority 2018, dated 2023).

The target of one test is T1, CCR6 (Homo sapiens, UniProt P51684).
T1 construct: Human CD4+CCR6+CXCR3-T cells were isolated from leukopak from healthy donors; endogenous in cells
T1 sequence (P51684 1-374): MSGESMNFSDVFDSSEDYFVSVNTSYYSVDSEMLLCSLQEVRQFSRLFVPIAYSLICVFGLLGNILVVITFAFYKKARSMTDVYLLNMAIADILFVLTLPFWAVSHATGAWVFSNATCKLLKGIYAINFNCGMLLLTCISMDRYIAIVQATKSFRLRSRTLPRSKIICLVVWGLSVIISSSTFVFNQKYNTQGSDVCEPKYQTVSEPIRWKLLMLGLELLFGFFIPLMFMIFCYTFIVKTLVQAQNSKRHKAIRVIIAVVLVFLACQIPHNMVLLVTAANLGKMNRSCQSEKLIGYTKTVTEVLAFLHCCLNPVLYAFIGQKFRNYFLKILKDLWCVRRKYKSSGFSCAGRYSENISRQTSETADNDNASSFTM
The test can be described thus: CCR6+ T Cell Chemotaxis Assay. Type of test: cell-based. As to conditions: for IC50: Table 11, human CD4+CCR6+CXCR3- T cells, CCL20 0.5 nM in bottom chamber, 1 h at 37° C., read-out: IC50; for T Cell Chemotaxis Selectivity: Table 13, T cell chemotaxis compared to neutrophil chemotaxis, NS = not selective for T cell chemotaxis compared to neutrophil chemotaxis. From the text:
Human CD4+CCR6+CXCR3-T cells were isolated from leukopak from healthy donors using EasySep™ Human Th17 Cell Enrichment Kit. […] Day 4 post activation, Dynabeads were removed from the culture. The activated T cells were maintained at 1-2×10^6 cells/mL for 15 days by feeding fresh growth media when needed.
For IC50 determination, the top and bottom of the chemotaxis chamber contained the same concentration of compound. DMSO was kept constant at 0.1% (v/v) in all wells. The final concentration of CCL20 (Peprotech 300-29A) in the bottom chamber is 0.5 nM. The fully assembled chemotaxis plate was placed in a cell culture incubator at 37° C., 5% CO2 for 1 h. After incubation, the top filter was removed, followed by a quick freeze of the bottom chamber at −80° C. for 1 h. The migrated cells in the bottom chamber were stained with CyQUANT dye (Life Technologies, C7026) for cell number determination.
IC50 values for compounds of the present invention (Table 11) were determined by the non-linear regression analysis of dose response curves.

A further test addresses T2, CXCR2 (Homo sapiens, UniProt P25025).
T2 sequence (P25025 1-360): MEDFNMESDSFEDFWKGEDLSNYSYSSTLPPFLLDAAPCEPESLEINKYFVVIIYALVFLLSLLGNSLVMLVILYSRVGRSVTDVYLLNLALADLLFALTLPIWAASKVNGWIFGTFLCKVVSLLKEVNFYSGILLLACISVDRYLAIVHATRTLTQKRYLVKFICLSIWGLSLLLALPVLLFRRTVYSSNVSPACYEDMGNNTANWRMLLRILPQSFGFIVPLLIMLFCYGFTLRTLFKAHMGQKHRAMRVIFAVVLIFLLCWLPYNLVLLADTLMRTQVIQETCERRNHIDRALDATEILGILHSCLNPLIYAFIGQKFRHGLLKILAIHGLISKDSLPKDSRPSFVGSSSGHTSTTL
The test can be described thus: Human Neutrophil Chemotaxis Assay. In kind it is cell-based. Conditions: Table 12; human neutrophils migrating towards the CXCR2 ligand GROα; read-out: IC50. The arrangement: Human neutrophils were purified from freshly drawn human whole blood; endogenous in cells; host or cells: primary human neutrophils from fresh whole blood. The procedure:
After 30 min, the labeled neutrophils were washed twice in chemotaxis buffer, resuspended as before and used immediately. For the assay, test compounds were tested in a dose-response format to determine IC50. Labeled neutrophils (50 μL) were pre-incubated with diluted test compound (50 μL) for 30 min in a 96-well plate (Greiner). Next, 100 μL of diluted compound was mixed with 100 μL of GROα (Peprotech #300-11, 2 nM) in the bottom portion of the chemotaxis chamber. The top portion (insert) of the chemotaxis system containing the FluoroBlok porous membrane was then assembled together. 50 μL of the pre-incubated neutrophils were added to the FluoroBlok insert (top portion) and chemotaxis measured by the neutrophils ability to migrate through the membrane towards the specific CXCR2 ligand, GROα.
IC50 values for compounds of the present invention (Table 12) were determined by the non-linear regression analysis of dose response curves.

Take `COc1cn(C)nc1[C@H](Nc1c(Nc2ccnc(C(=O)N(C)C)c2O)c(=O)c1=O)C1(C)CCCC1` [Example 12, (R)-3-Hydroxy-4-((2-(((4-methoxy-1-methyl-1H-pyrazol-3-yl)(1-methylcyclopentyl)methyl)amino)-3,4-dioxocyclobut-1-en-1-yl)amino)-N,N-dimethylpicolinamide]: at CCR6, the IC50 was 1.7 nM and the “T Cell Chemotaxis Selectivity” value came to 63. Further, the IC50 at CXCR2 came to 107 nM.

As to `COc1cn(C)nc1[C@H](Nc1c(Nc2ccnc(C(=O)N(C)C)c2O)c(=O)c1=O)C(C)(C)C` [Example 13, (R)-3-Hydroxy-4-((2-((1-(4-methoxy-1-methyl-1H-pyrazol-3-yl)-2,2-dimethylpropyl)amino)-3,4-dioxocyclobut-1-en-1-yl)amino)-N,N-dimethylpicolinamide], the IC50 at CCR6 is 5.4 nM; at CXCR2, 328 nM. In addition, the “T Cell Chemotaxis Selectivity” value on CCR6 was found to be 60.

For the compound `COc1cn(C)nc1[C@H](Nc1c(Nc2ccnc(C(=O)N(C)C(C)C)c2O)c(=O)c1=O)C(C)(C)C` [Example 14, (R)-3-Hydroxy-N-isopropyl-4-((2-((1-(4-methoxy-1-methyl-1H-pyrazol-3-yl)-2,2-dimethylpropyl)amino)-3,4-dioxocyclobut-1-en-1-yl)amino)-N-methylpicolinamide], the IC50 stood at 12.5 nM at CCR6 and 272 nM on CXCR2. Moreover, the “T Cell Chemotaxis Selectivity” value on CCR6 stood at 22.

On to `CN(C)C(=O)c1nccc(Nc2c(N[C@@H](c3nn(C)cc3OC(F)F)C3(C)CCCC3)c(=O)c2=O)c1O` [Example 15, (R)-4-((2-(((4-(Difluoromethoxy)-1-methyl-1H-pyrazol-3-yl)(1-methylcyclopentyl)methyl)amino)-3,4-dioxocyclobut-1-en-1-yl)amino)-3-hydroxy-N,N-dimethylpicolinamide], for which, on CCR6, the IC50 worked out at 10.6 nM and the “T Cell Chemotaxis Selectivity” value was 69. For the same compound, the IC50 on CXCR2 is 735 nM.

On to `CN(C)C(=O)c1nccc(Nc2c(N[C@@H](c3nn(C)cc3C#N)C3(C)CCCC3)c(=O)c2=O)c1O` [Example 16, (R)-4-((2-(((4-Cyano-1-methyl-1H-pyrazol-3-yl)(1-methylcyclopentyl)methyl)amino)-3,4-dioxocyclobut-1-en-1-yl)amino)-3-hydroxy-N,N-dimethylpicolinamide], for which the values for the IC50 at CCR6 and on CXCR2 were 41.7 nM and 4350 nM, respectively. The “T Cell Chemotaxis Selectivity” value at CCR6 was found to be 104.

In the case of `CCc1cn(C)nc1[C@H](Nc1c(Nc2ccnc(C(=O)N(C)C)c2O)c(=O)c1=O)C1(C)CCCC1` [Example 18, (R)-4-((2-(((4-Ethyl-1-methyl-1H-pyrazol-3-yl)(1-methylcyclopentyl)methyl)amino)-3,4-dioxocyclobut-1-en-1-yl)amino)-3-hydroxy-N,N-dimethylpicolinamide], at CCR6, the IC50 was determined as 3.3 nM and the “T Cell Chemotaxis Selectivity” value was found to be 306. The IC50 on CXCR2 was determined as 1010 nM.

Take `Cc1nc([C@H](Nc2c(Nc3ccnc(C(=O)N(C)C)c3O)c(=O)c2=O)C2(C)CC2)c(C)s1` [Example 19, (R)-4-((2-(((2,5-Dimethylthiazol-4-yl)(1-methylcyclopropyl)-methyl)amino)-3,4-dioxocyclobut-1-en-1-yl)amino)-3-hydroxy-N,N-dimethylpicolinamide]: the results for the IC50 at CCR6 and at CXCR2 were 70.6 nM and 197 nM, respectively. Also, the “T Cell Chemotaxis Selectivity” value on CCR6 is listed as 3.

In the case of `Cc1cn(C)nc1[C@H](Nc1c(Nc2ccnc(C(=O)N(C)C)c2O)c(=O)c1=O)C1(C)CC1` [Example 20, (R)-4-((2-(((1,4-Dimethyl-1H-pyrazol-3-yl)(1-methylcyclopropyl)methyl)amino)-3,4-dioxocyclobut-1-en-1-yl)amino)-3-hydroxy-N,N-dimethylpicolinamide], the IC50 on CCR6 was determined as 271 nM; at CXCR2, 167 nM.

`CCc1cn(C)nc1[C@H](Nc1c(Nc2ccnc(C(=O)N(C)C)c2O)c(=O)c1=O)C1(C)CC1` [Example 21, (R)-4-((2-(((4-Ethyl-1-methyl-1H-pyrazol-3-yl)(1-methylcyclopropyl)methyl)amino)-3,4-dioxocyclobut-1-en-1-yl)amino)-3-hydroxy-N,N-dimethylpicolinamide]: at CCR6, the IC50 turned out to be 102 nM and the “T Cell Chemotaxis Selectivity” value is on record as 3. The IC50 at CXCR2 came out at 293 nM.

Take `Cc1cn(C)nc1[C@H](Nc1c(Nc2ccnc(C(=O)N(C)C)c2O)c(=O)c1=O)C(C)(C)C` [Example 22, (R)-4-((2-((1-(1,4-Dimethyl-1H-pyrazol-3-yl)-2,2-dimethylpropyl)amino)-3,4-dioxocyclobut-1-en-1-yl)amino)-3-hydroxy-N,N-dimethylpicolinamide]: the IC50 on CCR6 amounted to 7.4 nM; on CXCR2, 141 nM. Further, the “T Cell Chemotaxis Selectivity” value on CCR6 is on record as 19.

Turning to `Cc1cn(C)nc1[C@H](Nc1c(Nc2ccnc(C(=O)N(C)C)c2O)c(=O)c1=O)C1(C)CCC1` [Example 23, (R)-4-((2-(((1,4-Dimethyl-1H-pyrazol-3-yl)(1-methylcyclobutyl)methyl)amino)-3,4-dioxocyclobut-1-en-1-yl)amino)-3-hydroxy-N,N-dimethylpicolinamide], at CCR6, the IC50 worked out at 16.5 nM and the “T Cell Chemotaxis Selectivity” value turned out to be 15. The IC50 at CXCR2 was 248 nM.

With `Cc1nc([C@H](Nc2c(Nc3ccnc(C(=O)N(C)C)c3O)c(=O)c2=O)C2(C)CCC2)c(C)s1` [Example 24, (R)-4-((2-(((2,5-Dimethylthiazol-4-yl)(1-methylcyclobutyl)-methyl)amino)-3,4-dioxocyclobut-1-en-1-yl)amino)-3-hydroxy-N,N-dimethylpicolinamide], on CCR6, the IC50 was determined as 3.1 nM and the “T Cell Chemotaxis Selectivity” value is reported as 325. Besides, the IC50 at CXCR2 worked out at 1010 nM.

Consider `Cc1nc([C@H](Nc2c(Nc3ccnc(C(=O)N(C)C)c3O)c(=O)c2=O)C(C)(C)C)c(C)s1` [Example 25, (R)-4-((2-((1-(2,5-Dimethylthiazol-4-yl)-2,2-dimethylpropyl)-amino)-3,4-dioxocyclobut-1-en-1-yl)amino)-3-hydroxy-N,N-dimethylpicolinamide], for which the half-maximal inhibitory concentration (IC50) amounted to 1.2 nM at CCR6 and 355 nM on CXCR2. Besides, the “T Cell Chemotaxis Selectivity” value on CCR6 is 296.

As to `CCc1cn(C)nc1[C@H](Nc1c(Nc2ccnc(C(=O)N(C)C)c2O)c(=O)c1=O)C1(C)CCC1` [Example 26, (R)-4-((2-(((4-Ethyl-1-methyl-1H-pyrazol-3-yl)(1-methylcyclobutyl)methyl)amino)-3,4-dioxocyclobut-1-en-1-yl)amino)-3-hydroxy-N,N-dimethylpicolinamide], the IC50 on CCR6 worked out at 3.3 nM; at CXCR2, 142 nM. Besides, on CCR6, the “T Cell Chemotaxis Selectivity” value is 43.

Consider `CCc1cn(C)nc1[C@H](Nc1c(Nc2ccnc(C(=O)N(C)C)c2O)c(=O)c1=O)C(C)(C)C` [Example 27, (R)-4-((2-((1-(4-Ethyl-1-methyl-1H-pyrazol-3-yl)-2,2-dimethylpropyl)amino)-3,4-dioxocyclobut-1-en-1-yl)amino)-3-hydroxy-N,N-dimethylpicolinamide], for which, at CCR6, the IC50 was 13.2 nM and the “T Cell Chemotaxis Selectivity” value is 4. For the same compound, the IC50 at CXCR2 came out at 52.6 nM.

For orientation: IC50 means the concentration that inhibits the measured activity by half.
